{"source": "patent US7053194B2", "about": "“Compositions and methods for p53-mediated repression of gene expression” (Fox Chase Cancer Center, priority 1999, dated 2006)", "key": {"MCF7 cells": {"tested_on": "MCF7 cells", "test": "Cyclin-dependent kinase assays", "format": "cell-based, human", "conditions": "MCF7 treated with doxorubicin", "method": "Cyclin-dependent kinase assays were performed essentially as described (Harper et al., 1993), using 250 ug of whole cell extract immunoprecipitated with 0.5 ug of polyclonal antisera to cdk2 (Santa Cruz Biotechnology), cyclin E and cyclin A. Following immunoprecipitation and washing, 1 ug of histone H1 (Sigma) was used as a substrate, in kinase reaction buffer (20 mM Tris pH 7.4/7.5 mM MgCl2/1 mM DTT), supplemented with 5 mM sodium fluoride, 1 mM sodium ortho-vanadate, and 125 ng/uL cAMP-dependent protein kinase inhibitor (Sigma). 0.5 uL of ^32P-ATP (NEN, 800 Ci/mmol) was added to each reaction, and 0.5 ug of normal rabbit IgG (Sigma) was used as a negative control. Following incubation at 37 degrees for 20 minutes, reactions were boiled in Laemmli sample buffer and loaded onto 10% SDS-PAGE. Cells for flow cytometry were fixed in ethanol and stained with propidium iodide as described (Murphy et al., Genes & Devel. 10:2971–2980, 1996) and analyzed on a Becton Dickinson FacScan. G1, S (synthesis) and G2/M populations were calculated using the program CellQuest.\nThis finding is consistent with flow cytometry data, which indicate that these cells are arrested in G2/M (not shown). As a negative control, normal rabbit IgG is used instead of polyclonal antisera for the immunoprecipitations and kinase assays (lanes 1 and 4)."}, "MCF-7 cells": {"tested_on": "MCF-7 cells", "test": "Immunoprecipitation-western analysis of p53 and p53-mSin3a complexes", "format": "cell-based, human", "method": "Sub-confluent cultures of MCF 7 and A2780 cells were treated with 100 nM trichostatin A (TSA, Sigma)for 2 hours, followed by incubation with 0.5 ug/ml adriamycin (doxorubicin, Sigma) for the indicated timepoints. Va15 cells grown at 39 degrees were treated with 100 nM TSA for two hours, followed by temperature shift to 32 degrees for 12 hours. p53 induction was monitored by western analysis of 100 ug protein as described (Murphy et al., Genes & Devel. 10:2971–2980, 1996), using 0.1ug/ml DO-1 (Ab-6, Calbiochem) or 421 (Ab-1, Calbiochem). MDM2 induction was monitored using the monoclonal antibody 2A10, kindly provided by Arnold Levine (Rockefeller University). For UV treatments, cells were irradiated with 4 J/m2 of UV-C with a Spectroline X series ultraviolet lamp, and output was monitored with a traceable UV light meter (Fisher Scientific). For ALLN treatment, MCF-7 cells were treated with 50 uM ALLN (calpain I inhibitor, Sigma) made in DMSO (dimethyl sulfoxide, Sigma) or with DMSO alone for 2 hours prior to harvesting.\nSub-confluent cultures of cells were harvested and lysed in NP-40 buffer supplemented with protease inhibitors (1 mM PMSF, 10 ug/ml pepstatin A, 10 ug/ml aprotinin, and 5ug/ml leupeptin). Protein concentrations were determined by the method of Bradford (BioRad). Equal ug amounts of protein (between 2.0 and 3.0 mg) were immunoprecipitated with 1 ug of each antibody, except for Va15 immunoprecipitations, which used 1000 ug protein, as described (Murphy et al., Genes & Devel. 10:2971–2980, 1996). For p300, antibody N15 (Santa Cruz Biotechnology) and AB-1 (Calbiochem) yielded similar results. Each IP was washed twice in NP-40 buffer (Wu, et al., Genes & Devel. 7:1126–1132, 1993), followed by 2 washes in RIPA buffer (50 mM Tris pH 7.4/150 mM NaCl/1% Triton X 100/0.1% SDSI 1% Na deoxycholate). Immunoprecipitations were run on 7.5–10% SDS-PAGE gels and transferred overnight onto Immuno-Blot PVDF membrane (BioRad). […]\nThese complexes persisted under stringent washing conditions (RIPA buffer washes, see Materials and Methods), and were not present using control antisera (rabbit IgG, lane 1). […] We next analyzed the p53-mSin3a interaction following post-translational stabilization of p53 mediated by DNA damaging agents. […]\nWe next analyzed the time-course of the p53-mSin3a interaction following exposure of cells to the DNA damaging agent adriamycin (doxorubicin). Both p53-mSin3a and p53 p300 complexes were monitored by IP-western analysis in a time course following adriamycin treatment of MCF-7 cells. As a control, p53 was immunoprecipitated using polyclonal antisera generated against full-length p53 (Santa Cruz Biotechnology). p53 levels were also assessed at each time point by western analyses (data not shown). […]"}}}
{"smiles": "COc1cccc2c1C(=O)c1c(O)c3c(c(O)c1C2=O)C[C@@](O)(C(=O)CO)C[C@@H]3O[C@H]1C[C@H](N)[C@H](O)[C@H](C)O1", "note": "[adriamycin, doxorubicin]", "values": [{"measurement": "cdk2, cyclin A and cyclin E kinase activities", "setting": "MCF7 cells", "value": "all activities are low"}, {"measurement": "cell cycle arrest", "setting": "MCF7 cells", "value": "arrest in G2/M phase"}, {"measurement": "total p53 protein", "setting": "MCF-7 cells; MCF-7, adriamycin, four and eight hours of treatment", "value": "significant increase in total p53 protein"}, {"measurement": "amount of p53 in mSin3a complexes, increase", "setting": "MCF-7 cells; MCF-7 treated with doxorubicin", "value": "approximately five-fold greater"}]}
